Experimental data reported in patent publication US9458176B2, “Tetrahydroimidazo(1,5-D)[1,4]oxazepine derivative” (Eisai R&D Management Co., Ltd., priority 2013, dated 2016).
Marks after values point to notes of the source that are not given here.

Columns and labels:
human mGluR2 = human mGluR2 (Homo sapiens (Human), UniProt Q14416); experiment: [35S]GTPγS binding assay (Affinity to mGluR2); type: biochemical; details: cell membrane fraction of HEK293 cells stably expressing human mGluR2; glutamic acid 10 μM
Sequence of human mGluR2 (Q14416 19-872): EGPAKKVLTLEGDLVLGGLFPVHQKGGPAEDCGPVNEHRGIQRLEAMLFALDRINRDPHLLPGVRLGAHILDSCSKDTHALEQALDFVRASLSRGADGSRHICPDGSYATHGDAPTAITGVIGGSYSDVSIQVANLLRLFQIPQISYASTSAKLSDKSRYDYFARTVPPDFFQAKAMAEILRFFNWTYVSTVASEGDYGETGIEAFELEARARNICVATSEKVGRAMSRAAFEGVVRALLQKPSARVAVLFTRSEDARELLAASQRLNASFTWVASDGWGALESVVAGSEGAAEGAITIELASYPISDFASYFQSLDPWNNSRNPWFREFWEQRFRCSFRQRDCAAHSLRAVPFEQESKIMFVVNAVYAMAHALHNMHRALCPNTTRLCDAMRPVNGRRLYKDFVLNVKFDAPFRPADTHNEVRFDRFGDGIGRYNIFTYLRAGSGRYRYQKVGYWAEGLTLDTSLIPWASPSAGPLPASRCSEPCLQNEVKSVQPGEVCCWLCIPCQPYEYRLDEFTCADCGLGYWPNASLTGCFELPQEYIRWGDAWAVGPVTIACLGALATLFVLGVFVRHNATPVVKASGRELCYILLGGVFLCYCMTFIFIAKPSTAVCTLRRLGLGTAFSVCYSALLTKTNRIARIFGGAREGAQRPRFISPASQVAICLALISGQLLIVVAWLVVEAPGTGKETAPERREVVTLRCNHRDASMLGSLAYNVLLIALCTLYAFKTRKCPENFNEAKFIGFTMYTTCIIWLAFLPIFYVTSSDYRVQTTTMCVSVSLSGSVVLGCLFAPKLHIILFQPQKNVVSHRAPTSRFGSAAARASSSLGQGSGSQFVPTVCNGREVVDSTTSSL
Outline: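 Membranes from HEK293 cells stably co-expressing human mGluR2 and SLC1A3 (1.8–3 μg protein) preincubated with compound 30 min at RT, then stimulated with 10 μM glutamate 15 min; [35S]GTPγS (0.8 kBq) with WGA-SPA beads 1 h, buffer with 3 μM GDP, 100 mM NaCl, 1 mM MgCl2. IC50 from inhibition of glutamate-specific binding.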

Long-Evans rats = experiment: Novel Object Recognition (NOR) test in rats with scopolamine-induced cognitive impairment; type: in vivo, rat; details: male Long-Evans rats, scopolamine 0.3 mg/kg i.p.; statistically significant difference in discrimination index vs scopolamine alone group
Experimental: Six-week old male Long-Evans rats were used for this test. For 2 days before starting the test, the rats were acclimated to experimental operations such as administration and a test device (that is, a black or gray plastic cage with a width of 40 cm, a depth of 30 cm and a height of 45 cm). Each test compound was dissolved in a 0.1 N hydrochloric acid to be orally administered. Thirty minutes after the administration, scopolamine hydrobromide was intraperitoneally administered at a 0.3 mg/kg dose, so as to induce cognitive impairment. After another 30 minutes, each rat was acclimated in the test device for 3 minutes, and thereafter, two blocks in the same shape were put in the test device as acquisition trial, and exploring time for each block was measured for 5 minutes. Two hours after the acquisition trial, the rat was acclimated in the test device for 3 minutes, and thereafter, the same block as those used in the acquisition trial and a new block in a different shape were put in the cage for retention trial. The exploring time for each block was measured for 3 minutes, and a ratio of the exploring time for the newly used block to the sum of the exploring times for the respective blocks was calculated as a discrimination index. The thus obtained discrimination indexes were compared among a group of rats to which a medium alone was administered (medium group), a group of rats to which scopolamine alone was administered (scopolamine alone group) and a group of rats to which both the test compound and scopolamine were administered, so as to evaluate the action of the test compound on the novel object recognition function (cognitive function) of the rats.
Each discrimination index was shown as an average and a standard error. The statistical significance between the medium group and the scopolamine alone group was analyzed by the independent t-test. The statistical significance between the scopolamine alone group and each sample group was analyzed by one-way analysis of variance and then by Dunnett's multiple comparison test. The significance level was set to 5% on both sides. […] The analysis was carried out by using Prism 5 for Windows for Japanese, ver. 5.03.
A minimum effective dose at which a statistically significant difference was found between a group suffering from the cognitive impairment induced by scopolamine and a group treated with each compound is shown in Table 10.

IC50 (human mGluR2) [µM] | Compound | Minimum effective dose (Long-Evans rats)
0.022 | Cc1cc(-c2nc(-c3ccc(Cl)c(F)c3)n3c2CCO[C@H](C)C3)cc(CF)n1 [Example 87] | 3 mg/kg, p.o.
0.0042 | COc1cc(-c2nc(-c3cc(C)nc(C)c3)c3n2C[C@@H](C)OCC3)ccc1C(F)(F)F [Example 7, (R)-1-(2,6-dimethylpyridin-4-yl)-3-(3-methoxy-4-(trifluoromethyl)phenyl)-6-methyl-5,6,8,9-tetrahydroimidazo[1,5-d][1,4]oxazepine] | 0.3 mg/kg, p.o.
0.0048 | COc1cc(-c2nc(-c3ccnc(C)c3)c3n2C[C@@H](C)OCC3)ccc1OC(F)(F)F [Example 24, (R)-3-(3-methoxy-4-(trifluoromethoxy)phenyl)-6-methyl-1-(2-methylpyridin-4-yl)-5,6,8,9-tetrahydroimidazo[1,5-d][1,4]oxazepine] | 1 mg/kg, p.o.
0.01 | COc1cc(-c2nc(-c3cc(C)nc(C)c3)c3n2C[C@@H](C)OCC3)ccc1Cl [Example 1, (R)-3-(4-chloro-3-methoxyphenyl)-1-(2,6-dimethylpyridin-4-yl)-6-methyl-5,6,8,9-tetrahydroimidazo[1,5-d][1,4]oxazepine] | 3 mg/kg, p.o.
0.0114 | COc1cc(-c2nc(-c3cc(C)nc(C)c3)c3n2C[C@@H](CF)OCC3)ccc1Cl [Example 11, (S)-3-(4-chloro-3-methoxyphenyl)-1-(2,6-dimethylpyridin-4-yl)-6-fluoromethyl-5,6,8,9-tetrahydroimidazo[1,5-d][1,4]oxazepine] | >1* mg/kg, p.o.
0.0056 | Cc1cc(-c2nc(-c3ccc(OC(F)F)c(C)c3)n3c2CCO[C@H](C)C3)cc(C)n1 [Example 14, (R)-3-(4-(difluoromethoxy)-3-methylphenyl)-1-(2,6-dimethylpyridin-4-yl)-6-methyl-5,6,8,9-tetrahydroimidazo[1,5-d][1,4]oxazepine] | 1 mg/kg, p.o.
0.0223 | COc1cc(-c2nc(-c3cc(C)nc(C)c3)c3n2CCOCC3)ccc1Cl [Example 44] | 1 mg/kg, p.o.
